Holding throughout (format): in vivo
The test system of assay [1] is adult flies Musca domestica strain WHO-N. The assay is described as follows: Musca domestica test (MUSCDO surface treatment & contact assay). As to conditions: 24 hours after contact, read-out: efficacy (mortality); for mortality at 4 mg/m2: surface concentration 4 mg/m^2, exposure 30 minutes; for mortality at 20 mg/m2: surface concentration 20 mg/m^2, exposure 30 minutes. An outline of the steps:
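Compound dissolved at 2 mg/ml in acetone with 2000 ppm RME, applied to glazed tile and dried; adult flies exposed on the surface for 30 min. Percent mortality scored 24 h after contact.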

For assay [2], the system named is adult unfed cat fleas (Ctenocephalides felis). The assay is described as follows: Ctenocephalides felis oral test. The settings on record: 48 h, read-out: activity (mortality). An outline of the steps:
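About 20 adult unfed cat fleas fed through parafilm on citrated cattle blood containing compound (from a DMSO concentrate). Blood held at 37° C, fleas at room temperature. Mortality in % scored after 2 days.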

The subject of assay [3] is adult cat fleas (Ctenocephalides felis). The assay is described as follows: Ctenocephalides felis in-vitro contact test, adult cat flea. As to conditions: application rate 5 μg/cm^2 (=500 g/ha), after 48 hours, read-out: activity (efficacy: fleas dead or moribund). An outline of the steps:
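Acetone solutions of compound were coated onto inner walls of glass tubes (900 ppm giving 5 μg/cm^2) and dried; 5-10 adult C. felis were then held 48 h at room temperature. Efficacy = % fleas dead or moribund, judged by inability to escape a 45-50° C heating plate within 5 min.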

Assay [4] concerns green peach aphid (Myzus persicae). The assay is described as follows: Myzus persicae oral test. As to conditions: 120 h, read-out: activity (mortality). The procedure, abridged: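 Oral uptake format: water-diluted acetone concentrate of compound is blended into IPL41 medium carrying 33%+15% sugar and offered under a parafilm membrane. Percentage of dead insects is recorded after 5 days.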

Assay [5] concerns adult engorged female ticks (Rhipicephalus microplus). The assay is described as follows: Rhipicephalus (Boophilus) microplus injection test. As to conditions: 168 h, application rate 4 μg/tick, egg deposition after 7 days, read-out: activity (efficacy: infertile eggs). The procedure, abridged:
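Five adult engorged female ticks injected into the abdomen with 1 μL compound solution in DMSO, then held in a climate chamber. Fertile egg deposition assessed after 7 days, unclear eggs kept until hatching (about 42 days); efficacy 100% = all eggs infertile, 0% = all fertile.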

In assay [6] the test system is larvae of the southern green stink bug (Nezara viridula). Description: Nezara viridula spray test. The settings on record: 96 h, application rate 100 g/ha, after 4 days, barley plants. An outline of the steps:
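Barley plants sprayed with the active compound in emulsifier-containing water, then infested with stink bug larvae. Mortality scored in % after 4 days, with 100% meaning all insects killed.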

Assay [7] relates to fall armyworm larvae (Spodoptera frugiperda). Description: Spodoptera frugiperda spray test. The settings on record: 168 h, application rate 100 g/ha, after 7 days, maize leaf sections. The procedure, abridged:
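Maize leaf sections sprayed with compound diluted in water with 1000 ppm emulsifier, then infested with larvae once dry. Mortality (%) scored after 7 days; 100% = all caterpillars killed.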

In assay [8] the test system is adult brown dog ticks (Rhipicephalus sanguineus). The assay is described as follows: Rhipicephalus sanguineus in-vitro contact test, adult brown dog ticks. As to conditions: application rate 5 μg/cm^2 (=500 g/ha), after 48 hours, read-out: activity (efficacy: ticks dead or moribund). An outline of the steps:
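Acetone solution (900 ppm giving 5 μg/cm²) coated on inner walls of glass tubes; after drying, 5-10 adult ticks added and held at room temperature 48 h. Ticks then placed on 45-50 °C plate ≤5 min; those unable to climb away scored dead/moribund, efficacy as % affected.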

Structures are written as SMILES.

In general, mortality refers to the share of the test organisms that died.

As to `Cc1nc([C@H](C)NC(=O)c2cc(C(F)(F)F)cc(C(F)(F)F)c2)n(-c2ccc(C(=O)N3C[C@@H](C)O[C@@H](C)C3)cn2)n1` [Example I-45], in assay [1], the mortality at 4 mg/m2 fell in the range of 80 to 100% and the mortality at 20 mg/m2 lay within 80 to 100%. Further, the mortality at 100 ppm in assay [2] was 100%. In assay [3], the pest or weed control at 5 µg/cm2 stood at 100%. Moreover, in assay [4], the mortality at 4 ppm was 100%. Moreover, the pest or weed control at 0.004 mg in assay [5] turned out to be 100%. In assay [6], this compound came in with a mortality at 100 g/ha of 100%. In assay [7], this compound registered a mortality at 100 g/ha of 100%. Besides, in assay [8], the pest or weed control at 5 µg/cm2, 500 g/ha was determined as 100%.

For the compound `C[C@@H]1CN(C(=O)c2ccc(-n3ncnc3[C@H](C)NC(=O)c3cc(C(F)(F)F)cc(C(F)(F)F)c3)nc2)C[C@@H](C)O1` [Example I-46], the mortality at 20 mg/m2 in assay [1] was 80 to 100%. Also, the mortality at 100 ppm in assay [2] was 100%. Moreover, the pest or weed control at 5 µg/cm2 in assay [3] worked out at 100%. Further, the mortality at 4 ppm in assay [4] was found to be 100%. The pest or weed control at 0.004 mg in assay [5] is 100%. Besides, the mortality at 100 g/ha in assay [6] and in assay [7] was 100% in each case. Further, the pest or weed control at 5 µg/cm2, 500 g/ha in assay [8] is 100%.

In the case of `C[C@@H]1CN(C(=O)c2ccc(-n3ncnc3[C@H](C)NC(=O)c3cc(C(F)(F)F)cc(C(F)(F)F)c3)nc2)C[C@H](C)O1` [Example I-50], the mortality at 4 mg/m2 in assay [1] was 80 to 100%. Also, the mortality at 20 mg/m2 in assay [1] fell in the range of 80 to 100%. Also, the mortality at 100 ppm in assay [2] came to 100%. Moreover, the pest or weed control at 5 µg/cm2 in assay [3] worked out at 100%. Further, in assay [4], the mortality at 4 ppm was 100%. Moreover, in assay [5], the pest or weed control at 0.004 mg was found to be 100%. Also, the mortality at 100 g/ha in assay [6] and in assay [7] was 100% throughout. In addition, the pest or weed control at 5 µg/cm2, 500 g/ha in assay [8] came out at 100%.

The record behind these values is patent US20230058623A1, “NOVEL HETEROARYL-TRIAZOLE COMPOUNDS AS PESTICIDES” (Bayer Aktiengesellschaft, priority 2019, published 2023).
